# In US5753715A, “2-disubstituted cyclohexenyl and cyclohexyl antimicrobial agents” (Ortho Pharmaceutical Corporation, priority 1995, dated 1998):
# Assays:
# Kinase A and SpoOF = biological target: T1, Kinase A and SpoOF (Bacillus subtilis, UniProt P16497); assay: Autophosphorylation of Kinase A and Transphosphorylation of SPoOF Assay; assay type: biochemical; settings: inhibition of Kinase A autophosphorylation / SpoOF transphosphorylation, [32P]ATP, gel, phosphoimager
# T1 sequence (P16497 1-606): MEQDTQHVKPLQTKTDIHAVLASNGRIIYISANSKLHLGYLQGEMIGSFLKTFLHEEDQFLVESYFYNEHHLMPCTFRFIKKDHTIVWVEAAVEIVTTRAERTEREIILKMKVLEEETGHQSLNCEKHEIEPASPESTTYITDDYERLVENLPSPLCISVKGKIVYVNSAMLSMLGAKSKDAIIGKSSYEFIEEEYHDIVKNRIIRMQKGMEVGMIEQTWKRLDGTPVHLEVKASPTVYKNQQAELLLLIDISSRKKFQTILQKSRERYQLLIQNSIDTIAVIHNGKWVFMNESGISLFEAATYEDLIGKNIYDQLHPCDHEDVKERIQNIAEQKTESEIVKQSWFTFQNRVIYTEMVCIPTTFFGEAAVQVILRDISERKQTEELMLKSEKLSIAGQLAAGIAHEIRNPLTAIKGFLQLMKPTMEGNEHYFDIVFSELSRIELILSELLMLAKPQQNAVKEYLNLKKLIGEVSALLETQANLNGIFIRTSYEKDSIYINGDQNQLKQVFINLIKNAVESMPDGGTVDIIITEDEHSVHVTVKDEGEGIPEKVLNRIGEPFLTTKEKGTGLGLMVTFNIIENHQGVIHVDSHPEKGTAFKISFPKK
# S. epi oc2603 = assay: MIC, microdilution broth method (NCCLS); assay type: cell-based; parameters: unit not given here; settings: cation supplemented Mueller Hinton broth, 35° C., 16-20 hours
# Experimental: (§1) The in vitro antimicrobial spectrum of the compounds of the present invention were determined by the microdilution broth method following the test method from the National Committee for […] (NCCLS ). The method is described in the NCCLS Document M7-A2, Vol. 10, No.8 "Methods for Dilution Antimicrobial Susceptibility Test for Bacteria that Grow Aerobically--Second Edition".
# (§2) In this method two fold serial dilutions of drug in cation supplemented Mueller Hinton broth are added to wells in microdilution trays. The test organisms are prepared by adjusting the turbidity of actively growing broth cultures so that the final concentration of test organism after it is added to the wells is approximately 5×10^4 colony forming units per well delivered by the Steers replicating device.
# (§3) Following inoculation of the microdilution trays, the trays are incubated at 35° C. for 16-20 hours and then read. […] The amount of growth in the wells containing the test compound is compared with the amount of growth in the growth-control wells used in each tray.
# E. coli oc2605 = assay: MIC, microdilution broth method (NCCLS); assay type: cell-based; settings: cation supplemented Mueller Hinton broth, 35° C., 16-20 hours; unit assumed
# Experimental: as §1, §2, §3
# E. faecalis ACTCC 29212 = assay: MIC, microdilution broth method (NCCLS); assay type: cell-based; settings: cation supplemented Mueller Hinton broth, 35° C., 16-20 hours; unit assumed
# Experimental: as §1, §2, §3
# E. coli oc2530 = assay: MIC, microdilution broth method (NCCLS); assay type: cell-based; settings: cation supplemented Mueller Hinton broth, 35° C., 16-20 hours; unit assumed
# Experimental: as §1, §2, §3
# Ps. aerug. oc161 = assay: MIC, microdilution broth method (NCCLS); assay type: cell-based; settings: cation supplemented Mueller Hinton broth, 35° C., 16-20 hours; unit assumed
# Experimental: as §1, §2, §3
# MRSA oc667 = assay: MIC, microdilution broth method (NCCLS); assay type: cell-based; settings: cation supplemented Mueller Hinton broth, 35° C., 16-20 hours; unit assumed
# Experimental: as §1, §2, §3
# A. niger 10578 = assay: MIC, microdilution broth method (NCCLS); assay type: cell-based; settings: cation supplemented Mueller Hinton broth, 35° C., 16-20 hours; unit assumed
# Experimental: as §1, §2, §3
# K. pneum. oc1943 = assay: MIC, microdilution broth method (NCCLS); assay type: cell-based; settings: cation supplemented Mueller Hinton broth, 35° C., 16-20 hours; unit assumed
# Experimental: as §1, §2, §3
# C. tropicalis = assay: MIC, microdilution broth method (NCCLS); assay type: cell-based; settings: cation supplemented Mueller Hinton broth, 35° C., 16-20 hours; unit assumed
# Experimental: as §1, §2, §3
# S. aureus ATCC 29213 = assay: MIC, microdilution broth method (NCCLS); assay type: cell-based; settings: cation supplemented Mueller Hinton broth, 35° C., 16-20 hours; unit assumed
# Experimental: as §1, §2, §3
# Ps. aerug. oc27853 = assay: MIC, microdilution broth method (NCCLS); assay type: cell-based; settings: cation supplemented Mueller Hinton broth, 35° C., 16-20 hours; unit assumed
# Experimental: as §1, §2, §3
# MRSA oc2089 = assay: MIC, microdilution broth method (NCCLS); assay type: cell-based; settings: cation supplemented Mueller Hinton broth, 35° C., 16-20 hours; unit assumed
# Experimental: as §1, §2, §3
# C. albicans 10231 = assay: MIC, microdilution broth method (NCCLS); assay type: cell-based; settings: cation supplemented Mueller Hinton broth, 35° C., 16-20 hours; unit assumed
# Experimental: as §1, §2, §3
# E. faecium oc2993 = assay: MIC, microdilution broth method (NCCLS); assay type: cell-based; settings: cation supplemented Mueller Hinton broth, 35° C., 16-20 hours; unit assumed
# Experimental: as §1, §2, §3
# E. faecalis oc3041 = assay: MIC, microdilution broth method (NCCLS); assay type: cell-based; settings: cation supplemented Mueller Hinton broth, 35° C., 16-20 hours; unit assumed
# Experimental: as §1, §2, §3
IC50 (Kinase A and SpoOF) [mM],IC min (Kinase A and SpoOF) [mM],SMILES,also measured
295,125,CC(C)C1(CCOc2ccc(CCNCCN3CCCC3)cc2)C=CCCC1 (centres unmarked) [Compound 23],–
94.6,62.5,NCCNCCc1ccc(OCCC2(Cc3cccc(Cl)c3)C=CCCC2)cc1 (centres unmarked) [Compound 61],–
354,125,O=C(O)CCc1ccc(OCCC2(c3ccc(F)cc3)C=CCCC2)cc1 (centres unmarked) [Compound 12],–
728,500,C1=CC(CCOc2ccc(CCCNCCN3CCOCC3)cc2)(Cc2ccccc2)CCC1 (centres unmarked) [Compound 21],–
66.6,–,COc1ccc(CC2(CCOc3cccc(CNC(=N)N)c3)C=CCCC2)cc1 (centres unmarked) [Compound 56],–
91.3,–,NCc1ccccc1OCCC1(Cc2ccccc2Cl)C=CCCC1 (centres unmarked) [Compound 55],–
43.5,15.6,NCCc1ccc(OCCC2(Cc3ccc([N+](=O)[O-])cc3)CCCCC2)cc1 [Compound 16],–
46.6,–,COc1ccc(CC2(CCOc3ccc(CNC(=N)N)cc3)C=CCCC2)cc1 (centres unmarked) [Compound 57],–
92.3,–,CNCCCc1cnc(SCCC2(Cc3ccccc3)C=CCCC2)nc1 (centres unmarked) [Compound 8],–
91,62.5,CNCCCc1ccc(OCCC2(CCCc3ccccc3)C=CCCC2)cc1 (centres unmarked) [Compound 31],–
82.1,62.5,CNCCCc1ccc(OCCC2(Cc3ccccc3)C=CCCC2)cc1 (centres unmarked) [Compound 19],–
–,500,CNCCCc1cnc(NCCC2(Cc3ccccc3)C=CCCC2)nc1 (centres unmarked) [Compound 48],–
–,–,"CC1COc2c(N3CCN(C)CC3)c(F)cc3c(=O)c(C(=O)O)cn1c23 (centres unmarked) [OFX, reference compound]",MIC S. epi oc2603 (S. epi oc2603): 2; MIC E. coli oc2605 (E. coli oc2605): ≤ 0.12 µg/mL; MIC E. faecalis ACTCC 29212 (E. faecalis ACTCC 29212): 2 µg/mL; MIC E. coli oc2530 (E. coli oc2530): ≤ 0.12 µg/mL; MIC Ps. aerug. oc161 (Ps. aerug. oc161): 2 µg/mL; MIC MRSA oc667 (MRSA oc667): 0.5 µg/mL; MIC A. niger 10578 (A. niger 10578): > 128 µg/mL; MIC K. pneum. oc1943 (K. pneum. oc1943): 0.25 µg/mL; MIC C. tropicalis (C. tropicalis): > 128 µg/mL; MIC S. aureus ATCC 29213 (S. aureus ATCC 29213): 0.5 µg/mL; MIC Ps. aerug. oc27853 (Ps. aerug. oc27853): 8 µg/mL; MIC MRSA oc2089 (MRSA oc2089): 4 µg/mL; MIC C. albicans 10231 (C. albicans 10231): > 128 µg/mL; MIC E. faecium oc2993 (E. faecium oc2993): 4 µg/mL; MIC E. faecalis oc3041 (E. faecalis oc3041): 2 µg/mL
–,500,CC(C)NCCc1ccc(OCCC2(CCCc3ccccc3)CCCCC2)cc1 [Compound 14],–
21,15.6,COc1ccc(CC2(CCOc3ccc(CCNC(=N)N)cc3)C=CCCC2)cc1 (centres unmarked) [Compound 47],–
46.8,31.25,Clc1cccc(CC2(CCOc3ccc(CCNCCN4CCCC4)cc3)C=CCCC2)c1 (centres unmarked) [Compound 40],–
353,125,NCCCCc1ccc(OCCC2(Cc3ccccc3)C=CCCC2)cc1 (centres unmarked) [Compound 11],–
437,250,CCCCNCCCc1ccc(OCCC2(c3ccc(F)cc3)C=CCCC2)cc1 (centres unmarked) [Compound 26],–
74.8,–,NCc1cccc(OCCC2(Cc3cc(Cl)cc(Cl)c3)C=CCCC2)c1 (centres unmarked) [Compound 58],–
122,–,COc1ccc(CC2(CCOc3ccccc3CN)C=CCCC2)cc1 (centres unmarked) [Compound 54],–
257,125,CCNCCc1ccc(NCCC2(Cc3ccccc3)C=CCCC2)cc1 (centres unmarked) [Compound 10],–

SMILES,IC50 (Kinase A and SpoOF) [mM],IC min (Kinase A and SpoOF) [mM],also measured
CNCCc1ccc(OCCCC2(Cc3ccccc3)C=CCCC2)cc1 (centres unmarked) [Compound 30],145,125,–
C1=CC(CCOc2ccc(CCCNCCN3CCCC3)cc2)(Cc2ccccc2)CCC1 (centres unmarked) [Compound 3],159,31.25,MIC S. epi oc2603 (S. epi oc2603): 8; MIC E. coli oc2605 (E. coli oc2605): 16 µg/mL; MIC E. faecalis ACTCC 29212 (E. faecalis ACTCC 29212): 8 µg/mL; MIC E. coli oc2530 (E. coli oc2530): 8 µg/mL; MIC Ps. aerug. oc161 (Ps. aerug. oc161): > 64 µg/mL; MIC MRSA oc667 (MRSA oc667): 8 µg/mL; MIC A. niger 10578 (A. niger 10578): 4 µg/mL; MIC K. pneum. oc1943 (K. pneum. oc1943): 32 µg/mL; MIC C. tropicalis (C. tropicalis): 8 µg/mL; MIC S. aureus ATCC 29213 (S. aureus ATCC 29213): 8 µg/mL; MIC Ps. aerug. oc27853 (Ps. aerug. oc27853): > 64 µg/mL; MIC MRSA oc2089 (MRSA oc2089): 8 µg/mL; MIC C. albicans 10231 (C. albicans 10231): > 64 µg/mL; MIC E. faecium oc2993 (E. faecium oc2993): 8 µg/mL; MIC E. faecalis oc3041 (E. faecalis oc3041): 8 µg/mL
CC(C)C1(CCOc2ccc(CCN)cc2)C=CCCC1 (centres unmarked) [Compound 22],94.7,31.25,–
